Measurements: patent publication US20210139857A1, “Intestinal organoid co-culture systems and methods for treating or preventing a disease or disorder associated with immune response-mediated tissue injury” (NEW YORK UNIVERSITY, priority 2019, published 2021)

What was measured:
[1] = test system: ATG16L1^T300A homozygous human organoids; assay: human organoid viability assay, TNFα-induced death; assay type: cell-based; conditions: 50 ng/ml TNFα, 48 hours; 100 nM Ruxolitinib, 1 μM GSK547, 20 μM Necrostatin-1s, 2 μM NSA; P<0.0001
Description: N=14 (Nonrisk) and 6 (T300A/T300A). Statistical significance was validated with Fisher's exact test. FIG. 13B depicts a combined organoid viability in (A). N=14 (Non-risk) and 6 (T300A/T300A). FIG. 13C and FIG. 13D depict representative images (FIG. 13C) and viability (FIG. 13D) of human small intestinal organoids stimulated with or without 50 ng/ml TNFα, 100 nM Ruxolitinib, 1 μM GSK547, 20 μM Necrostatin-1s (Nec-1s), and 2 μM necrosulfonamide (NSA) for 48 hours. Scale bars represent 400 μm. Data points in FIG. 13B represent an average viability of individual organoids in FIG. 12, and data points in FIG. […] are mean of technical replicates. At least 2 independent experiments were performed. ***p<0.001, ****p<0.0001.
Mouse small intestinal and colonic crypts were isolated and cultured. Crypts of proximal small intestine were counted and embedded in Matrigel at 10,000 crypts/ml and cultured in DMEM/F-12 in the presence of 100 IU penicillin and 100 μg/ml streptomycin (Corning), 125 μg/ml gentamicin (Gibco), 2 mM l-glutamine (Corning), 20 ng/ml mEGF (PeproTech), 100 ng/ml mNoggin (R&D Systems), and 500 ng/ml mR-Spondin 1 (R&D Systems), hereafter referred as ENR medium. Crypts of colon were counted and embedded in Matrigel and cultured in the ENR medium plus 50 ng/ml Wnt-3a, 1×B-27, and N-2 supplement (Thermo Fisher Scientific). Surface area of organoids was quantified with Image J. For organoid viability assays, crypts were embedded in 10 μl of Matrigel at 5,000 crypts/ml and cultured in 96-well culture plate in triplicate with or without 20 ng/ml mTNFα (PeproTech) and 100 nM Ruxolitinib (Selleckchem). Percent viable organoids was determined by daily quantification of the number of intact organoids. Opaque organoids with condensed structures or those that have lost adherence were excluded. Dead organoids were marked by staining with 100 μg/ml propidium iodide (SIGMA-ALDRICH). Human intestinal organoids were cultured (Neil et al., 2019, Nat Microbiol 4, 1737-1749). […]

Atg16L1^ΔIEC mice = assay: preclinical GVHD model: allo-HCT after chemotherapy conditioning, GSK547 or control chow; assay type: in vivo, mouse; conditions: GSK547 chow started 10 days before allo-HCT, P<0.05
Description: FIG. 1F depicts the survival of chemotherapy-pretreated Atg16L1^f/f (f/f) and Atg16L1^ΔIEC (ΔIEC) mice which received GSK547 or control chow and were transplanted with 5×10^6 T cell-depleted BM cells with 4×10^6 splenic T cells from donor LP/J mice. n=8 (f/f, control), 8 (ΔIEC, control), 8 (f/f, GSK547), and 8 (ΔIEC, GSK547). GSK547 was started 10 days before allo-HCT, and continued until the end of the study. FIG. 1G depicts the clinical disease scores evaluated every 7 days after allo-HCT. Data points in FIG. 1B, FIG. 1D, and FIG. 1F represent individual mice, and data points in FIG. 1C, FIG. 1E, and FIG. 1G are mean of clinical scores of viable mice. Bars represent means±SEM, and survival data in FIG. 1B, FIG. 1D, and FIG. 1F are combined results of 2 experiments performed independently. FIG. 1B, FIG. 1D, and FIG. 1F were analyzed with the Mantel-Cox log rank test.
In brief, female B6 background mice were intraperitoneally injected with busulfan (20 mg/kg/day) for 5 days, followed by cyclophosphamide (100 mg/kg/day) for 3 days. Days −2 and −1 were rest days. […] Recipient mice were monitored daily for survival and weekly quantified for clinical GVHD for 5 clinical parameters (weight loss, hunched posture, activity, fur ruffling, and skin lesions) on a scale from 0 to 2. […]

SMILES	viability of human organoids, TNFα-induced death [1]	survival after allo-HCT (Atg16L1^ΔIEC mice; BM + T cells from LP/J donors)	clinical GVHD score after allo-HCT (Atg16L1^ΔIEC mice; scored every 7 days)
N#Cc1cc(N2CCC(C(=O)N3N=CC[C@H]3c3cc(F)cc(F)c3)CC2)ncn1 [GSK547]	significantly protected	significantly better survival	significantly better
CN1C(=O)NC(Cc2c[nH]c3c(Cl)cccc23)C1=O (centres unmarked) [Necrostatin-1s]	significantly protected		
COc1nccnc1NS(=O)(=O)c1ccc(NC(=O)/C=C/c2ccc([N+](=O)[O-])s2)cc1 [Necrosulfonamide]	significantly protected		
